How the values were obtained:
Recombinant human FAP = molecular target: T1, Recombinant human FAP (Homo sapiens, UniProt Q12884); test: FAP FRET assay, FGF21-sequence FRET peptide substrate; type: biochemical; settings: FRET peptide with human FGF21 sequence, 6 μM, 37° C.
T1 construct: purchased R&D systems
T1 sequence (Q12884 1-760): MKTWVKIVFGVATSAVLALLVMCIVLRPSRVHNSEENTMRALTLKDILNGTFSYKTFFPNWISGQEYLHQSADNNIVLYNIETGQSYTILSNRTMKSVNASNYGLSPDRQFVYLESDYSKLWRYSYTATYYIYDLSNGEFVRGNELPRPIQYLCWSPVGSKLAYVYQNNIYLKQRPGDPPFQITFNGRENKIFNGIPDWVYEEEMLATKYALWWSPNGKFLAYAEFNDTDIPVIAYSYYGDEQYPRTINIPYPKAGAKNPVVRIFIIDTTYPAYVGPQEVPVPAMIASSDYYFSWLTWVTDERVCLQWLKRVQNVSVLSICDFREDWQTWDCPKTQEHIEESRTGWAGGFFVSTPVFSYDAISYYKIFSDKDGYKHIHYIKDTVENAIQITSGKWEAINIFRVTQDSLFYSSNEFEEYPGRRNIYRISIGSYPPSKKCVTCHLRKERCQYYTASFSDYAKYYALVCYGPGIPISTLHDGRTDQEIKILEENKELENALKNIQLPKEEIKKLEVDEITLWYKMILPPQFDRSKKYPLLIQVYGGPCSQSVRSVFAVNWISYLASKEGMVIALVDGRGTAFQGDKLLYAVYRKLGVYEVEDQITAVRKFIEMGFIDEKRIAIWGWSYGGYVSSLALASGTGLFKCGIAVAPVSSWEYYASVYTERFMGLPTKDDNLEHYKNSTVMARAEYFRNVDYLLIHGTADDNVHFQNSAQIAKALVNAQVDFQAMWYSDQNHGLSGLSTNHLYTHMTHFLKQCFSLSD
Procedure: The compounds according to the present technology were evaluated in terms of the inhibitory effect on the activity of dipeptidyl peptidases including FAP by using a substrate producing fluorescent substances upon enzymatic decomposition. The test was conducted at 25° C. to get a final reaction volume of 100 μL in a 96 black well plate. […] Briefly, the test compounds were dissolved in dimethyl sulfoxide (DMSO) at a concentration of 20 mM and then subjected to serial dilution, thereby creating an 8 point curve. As for the control group, a 6 point curve created by serial dilution of Talabostat in the same buffer solution was used. Fluorescence intensity was measured using a microplate reader (Flexstation3, Molecular Devices) under the wavelength condition exciting at 380 nm and reading the emission at 460 nm. The inhibitory effect of the test compounds was measured as a decrease (%) in the signal rate as compared to the control group without any inhibitor. Data was fixed to a logistic model with four variables and IC50 value was calculated using GraphPad Prism program. For the FAP FRET assay, recombinant human FAP (R&D systems) was diluted with 50 mM HEPES (pH 7.2) buffer comprising 150 mM of sodium chloride, 0.1 mg/ml of bovine serum albumin (BSA) and 1 mM EDTA to be 10 ng per final reaction. The test compounds were subjected to serial dilution in a buffer under the condition containing up to 0.1% of DMSO. FRET peptides containing human FGF21 sequence ([…]) conjugated with HyLite Fluor 488 and dark quencher QXL 520 (Anaspec) was used as a substrate. By dissolving in DMSO and then diluting in the same buffer, the substrate was added to be 6 μM per final reaction. All reactions of FRET assay was conducted at 37° C.

DPP4 = DPP4 (Homo sapiens, UniProt P27487); test: DPP4 inhibition, fluorogenic substrate H-Gly-Pro-AMC; type: biochemical; parameters: purchased R&D Systems; settings: recombinant human DPP4
DPP4, sequence (P27487 whole entry): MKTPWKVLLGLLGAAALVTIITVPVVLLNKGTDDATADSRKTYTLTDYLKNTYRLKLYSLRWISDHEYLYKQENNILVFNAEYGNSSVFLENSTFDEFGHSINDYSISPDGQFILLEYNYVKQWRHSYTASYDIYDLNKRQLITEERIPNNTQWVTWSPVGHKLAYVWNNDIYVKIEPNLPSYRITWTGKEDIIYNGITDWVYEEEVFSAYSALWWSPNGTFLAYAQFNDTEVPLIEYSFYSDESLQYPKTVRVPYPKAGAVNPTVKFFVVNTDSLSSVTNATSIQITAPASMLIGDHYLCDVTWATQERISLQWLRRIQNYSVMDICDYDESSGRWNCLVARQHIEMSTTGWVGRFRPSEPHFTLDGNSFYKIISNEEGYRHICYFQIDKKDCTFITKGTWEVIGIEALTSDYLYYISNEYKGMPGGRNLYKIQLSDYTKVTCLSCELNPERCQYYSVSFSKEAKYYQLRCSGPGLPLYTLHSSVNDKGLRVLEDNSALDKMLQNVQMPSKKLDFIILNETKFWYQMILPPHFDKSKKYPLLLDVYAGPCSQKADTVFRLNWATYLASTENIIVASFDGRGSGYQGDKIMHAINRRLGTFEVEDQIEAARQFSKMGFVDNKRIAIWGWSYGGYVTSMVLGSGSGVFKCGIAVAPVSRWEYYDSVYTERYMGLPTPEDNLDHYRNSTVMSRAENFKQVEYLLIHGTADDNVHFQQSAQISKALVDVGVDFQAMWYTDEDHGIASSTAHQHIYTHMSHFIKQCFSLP

SMILES | IC50 (Recombinant human FAP) | IC50 (DPP4)
COc1cccc2c(N[C@@H]3CCN(CC(=O)N4C[C@@H](F)C[C@H]4C#N)C3)ccnc12 [Example 195, (2S,4S)-4-fluoro-1-[2-[(3R)-3-[(8-methoxy-4-quinolyl)amino]pyrrolidin-1-yl]acetyl]pyrrolidine-2-carbonitrile] | 21.7 nM | 14100 nM
Cc1ccc2ncc(N(C)C3CCN(CC(=O)N4CCC[C@H]4C#N)CC3)cc2c1 [Example 322, (2S)-1-[2-[4-[methyl-(6-methyl-3-quinolyl)amino]-1-piperidyl]acetyl]pyrrolidine-2-carbonitrile] | 10.3 nM | ≥ 100000 nM
N#C[C@@H]1C[C@H](F)CN1C(=O)CN1CCC(Nc2cnc3ncccc3c2)CC1 [Example 368, (2S,4S)-4-fluoro-1-[2-[4-(1,8-naphthyridin-3-ylamino)-1-piperidyl]acetyl]pyrrolidine-2-carbonitrile] | 36.7 nM | ≥ 10000 nM
Cc1cccc2c(NC3CCN(CC(=O)N4C[C@@H](F)C[C@H]4C#N)CC3)ccnc12 [Example 343, (2S,4S)-4-fluoro-1-[2-[4-[(8-methyl-4-quinolyl)amino]-1-piperidyl]acetyl]pyrrolidine-2-carbonitrile] | 30.7 nM | 17400 nM
Cc1cnc2ccc(N[C@@H]3CCN(CC(=O)N4CCC[C@H]4C#N)C3)cc2c1 [Example 218, (2S)-1-[2-[(3R)-3-[(3-methyl-6-quinolyl)amino]pyrrolidin-1-yl]acetyl]pyrrolidine-2-carbonitrile] | 26.6 nM | 17300 nM
COc1ccc2ncc(NC3CCN(CC(=O)N4C[C@@H](F)C[C@H]4C#N)CC3)cc2c1 [Example 365, (2S,4S)-4-fluoro-1-[2-[4-[(6-methoxy-3-quinolyl)amino]-1-piperidyl]acetyl]pyrrolidine-2-carbonitrile] | 22.3 nM | ≥ 10000 nM
N#C[C@@H]1C[C@H](F)CN1C(=O)CN1CCC(Nc2ccnc(Br)c2)CC1 [Example 383, (2S,4S)-1-[2-[4-[(2-bromo-4-pyridyl)amino]-1-piperidyl]acetyl]-4-fluoro-pyrrolidine-2-carbonitrile] | 39.3 nM | 2800 nM
COc1ccc2cc(N(C)C3CCN(CC(=O)N4CCC[C@H]4C#N)CC3)cnc2c1 [Example 324, (2S)-1-[2-[4-[(7-methoxy-3-quinolyl)-methyl-amino]-1-piperidyl]acetyl]pyrrolidine-2-carbonitrile] | 25 nM | ≥ 100000 nM
COc1ccc2ncc(N(C)C3CCN(CC(=O)N4CCC[C@H]4C#N)CC3)cc2c1 [Example 323, (S)-1-(2-(4-((6-methoxyquinolin-3-yl)(methyl)amino)piperidin-1-yl)acetyl)pyrrolidine-2-carbonitrile] | 5.8 nM | ≥ 100000 nM
N#C[C@@H]1C[C@H](F)CN1C(=O)CN1CCC(Nc2ccnc3cccnc23)CC1 [Example 380, (2S,4S)-4-fluoro-1-[2-[4-(1,5-naphthyridin-4-ylamino)-1-piperidyl]acetyl]pyrrolidine-2-carbonitrile] | 77.1 nM | 8160 nM
N#C[C@@H]1C[C@H](F)CN1C(=O)CN1CCC(Nc2ccc3nc(C(F)(F)F)ccc3c2)CC1 [Example 381, (2S,4S)-4-fluoro-1-[2-[4-[[2-(trifluoromethyl)-6-quinolyl]amino]-1-piperidyl]acetyl]pyrrolidine-2-carbonitrile] | 14.3 nM | 10600 nM
Cc1ccc2nccc(N[C@@H]3CCN(CC(=O)N4C[C@@H](F)C[C@H]4C#N)C3)c2c1 [Example 187, (2S,4S)-4-fluoro-1-[2-[(3R)-3-[(6-methyl-4-quinolyl)amino]pyrrolidin-1-yl]acetyl]pyrrolidine-2-carbonitrile] | 23.9 nM | 17600 nM
CN(C(=O)c1ccc(NC2CCN(CC(=O)N3CCC[C@H]3C#N)CC2)c2cccnc12)c1ccccc1 [Example 398, N-methyl-5-[[1-[2-oxo-2-[(2S)-2-cyanopyrrolidin-1-yl]ethyl]-4-piperidyl]amino]-N-phenyl-quinoline-8-carboxamide] | 98.6 nM | 14000 nM
N#C[C@@H]1CCCN1C(=O)CN1CC[C@@H](Nc2cc(F)c3ncccc3c2)C1 [Example 221, (2S)-1-[2-[(3R)-3-[(8-fluoro-6-quinolyl)amino]pyrrolidin-1-yl]acetyl]pyrrolidine-2-carbonitrile] | 7.5 nM | 11100 nM
N#Cc1ccc2c(OC3CCN(CC(=O)N4CCC[C@H]4C#N)CC3)cccc2n1 [Example 430, 5-[[1-[2-oxo-2-[(2S)-2-cyanopyrrolidin-1-yl]ethyl]-4-piperidyl]oxy]quinoline-2-carbonitrile] | 24.5 nM | 29400 nM
COc1cccc2cc(NC3CCN(CC(=O)N4C[C@@H](F)C[C@H]4C#N)CC3)cnc12 [Example 367, (2S,4S)-4-fluoro-1-[2-[4-[(8-methoxy-3-quinolyl)amino]-1-piperidyl]acetyl]pyrrolidine-2-carbonitrile] | 28.1 nM | ≥ 10000 nM
N#C[C@@H]1C[C@H](F)CN1C(=O)CN1CCC(Nc2cc(Cl)nc(N3CCOCC3)c2)CC1 [Example 385, (2S,4S)-1-[2-[4-[(2-chloro-6-morpholino-4-pyridyl)amino]-1-piperidyl]acetyl]-4-fluoro-pyrrolidine-2-carbonitrile] | 77.4 nM | –
CC(=O)N1CCc2c(NC3CCN(CC(=O)N4C[C@@H](F)C[C@H]4C#N)CC3)cccc21 [Example 373, (2S,4S)-1-[2-[4-[(1-acetylindolin-4-yl)amino]-1-piperidyl]acetyl]-4-fluoro-pyrrolidine-2-carbonitrile] | 92.4 nM | 2760 nM
Cc1ccc2ncc(N(C)C3CCN(CC(=O)N4C[C@@H](F)C[C@H]4C#N)CC3)cc2c1 [Example 326, (2S,4S)-4-fluoro-1-[2-[4-[methyl-(6-methyl-3-quinolyl)amino]-1-piperidyl]acetyl]pyrrolidine-2-carbonitrile] | 8.8 nM | 50600 nM
CN(Cc1ccccc1)C(=O)c1ccc(NC2CCN(CC(=O)N3CCC[C@H]3C#N)CC2)c2cccnc12 [Example 397, N-benzyl-N-methyl-5-[[1-[2-oxo-2-[(2S)-2-cyanopyrrolidin-1-yl]ethyl]-4-piperidyl]amino]quinoline-8-carboxamide] | 38.9 nM | 28500 nM
N#C[C@@H]1CCCN1C(=O)CN1CC[C@@H](Nc2ccnc3ccc(F)cc23)C1 [Example 225, (2S)-1-[2-[(3R)-3-[(6-fluoro-4-quinolyl)amino]pyrrolidin-1-yl]acetyl]pyrrolidine-2-carbonitrile] | 7.2 nM | 34200 nM
CN(C(=O)c1ccc(NC2CCN(CC(=O)N3C[C@@H](F)C[C@H]3C#N)CC2)c2cccnc12)c1ccccc1 [Example 392, N-methyl-5-[[1-[2-oxo-2-[(2S,4S)-2-cyano-4-fluoro-pyrrolidin-1-yl]ethyl]-4-piperidyl]amino]-N-phenyl-quinoline-8-carboxamide] | 50.6 nM | 2070 nM
N#C[C@@H]1C[C@H](F)CN1C(=O)CN1CCC(Nc2cccc3nc[nH]c23)CC1 [Example 384, (2S,4S)-1-[2-[4-(3H-benzimidazol-4-ylamino)-1-piperidyl]acetyl]-4-fluoro-pyrrolidine-2-carbonitrile] | 74.9 nM | –
N#C[C@@H]1CCCN1C(=O)CN1CC[C@@H](Nc2ccc3nc(Cl)ccc3c2)C1 [Example 206, (2S)-1-[2-[(3R)-3-[(2-chloro-6-quinolyl)amino]pyrrolidin-1-yl]acetyl]pyrrolidine-2-carbonitrile] | 32.8 nM | –
N#C[C@@H]1C[C@H](F)CN1C(=O)CN1CC[C@@H](Nc2ccc3nc(Cl)ccc3c2)C1 [Example 207, (2S,4S)-4-fluoro-1-[2-[(3R)-3-[(2-chloro-6-quinolyl)amino]pyrrolidin-1-yl]acetyl]pyrrolidine-2-carbonitrile] | 17.9 nM | –

From patent publication US11655235B2, “Pyrrolidine and piperidine compounds” (YUHAN CORPORATION, priority 2019, dated 2023)
